One assay has as its system MDA-MB-231 (breast). As to the kind of experiment: In vitro cytotoxic activity MTT assay, MDA-MB-231. The following applies: Homo sapiens; MDA-MB-231 (breast) cells, exposed for 96 hours; read-out: IC50, concentration of compound eliciting a 50% inhibition of cell proliferation. Type of assay: cell-based. How it is done:
(§1) Compounds 1-16 were screened for their in vitro cytotoxic activity utilizing a 3-(4,5-dimethyl-thiazol-2-yl)-2,5-diphenyltetrazolium bromide (MTT) assay against selected cancer human cell lines consisting of PC3 (prostate), HCT116 (colon), A375 (melanoma), H1299 (lung), MIAPaCa-2 (pancreas), HL60 (leukemia), MCF7 (breast), MDA-MB-231 (breast) (T. Mosmann, J. Immunol. Meth., 1983, 65, 55-63). The cells were cultured at 37° C. in RMPI1640 medium supplemented with 10% fetal bovine serum, 50 IU/mL penicillin, and 50 μg/mL streptomycin in a 5% CO2 incubator. All cells were sub-cultured 3 times/week by trypsinisation. Viable cells were seeded and allowed to adhere for 12 h before a test drug was added in 96-well plates at an initial density of 1.0×10^5 cells/mL. Tumor cell lines were separately exposed to various concentrations of the tested compounds followed by incubation at a temperature of 37° C. during 96 h inside a medium of fresh RMPI 1640. Cells were subsequently incubated at 37° C. using MTT at 0.5 mg/mL during 4 hours. After removal of supernatant, formazan crystals were dissolved in isopropanol and the optical density was measured at 570 nm. CX-4945 was used as a positive control.
In general terms: Tetrazolium dyes change colour on reduction, which living cells bring about.

Another assay concerns A375 (melanoma). As to the kind of experiment: In vitro cytotoxic activity MTT assay, A375. Type of assay: cell-based. The note with it: Homo sapiens, A-375; A375 (melanoma) cells, exposed for 96 hours; read-out: IC50, concentration of compound eliciting a 50% inhibition of cell proliferation. How it is done:
as §1

A further assay addresses T1, recombinant human CK2 (Homo sapiens, UniProt P68400).
T1 construct: purchased Millipore
As to the kind of experiment: CK2 Kinase Assay (radiometric, 33P-ATP). In kind it is biochemical. The following applies: final ATP concentration 15 μM, 10 min at 30° C., eight concentrations; read-out: protein kinase CK2 IC50. How it is done:
CK2 Kinase Assay was conducted using the protocol as described in Pierre F. et al; J. Med. Chem. 2011, 54, 635-654. The tested compounds in aqueous solution were added at a volume of 10 μL to a reaction mixture comprising 10 μL of assay dilution buffer (ADB; 20 mM MOPS, pH 7.2, 25 mM β-glycerol phosphate, 5 mM EGTA, 1 mM sodium orthovanadate, and 1 mM dithiothreitol), 10 μL of substrate peptide (RRRDDDSDDD, dissolved in ADB at a concentration of 1 mM), 10 μL of recombinant human CK2 (RROP-holoenzyme, 25 ng dissolved in ADB; Millipore). Reactions were initiated by the addition of 10 μL of ATP solution (90% 75 mMMgCl2, 75 μM ATP (final ATP concentration:15 μM) dissolved in ADB; 10% [γ-33P] ATP (stock 1 mCi/100 μL; 3000 Ci/mmol (Perkin-Elmer) and maintained for 10 min at 30° C. The reactions were quenched with 100 μL of 0.75% phosphoric acid and then transferred to and filtered through a phosphor cellulose filter plate (Millipore). After washing each well five times with 0.75% phosphoric acid, the plate was dried under vacuum for 5 min and, following the addition of 15 μL of scintillation fluid to each well, the residual radioactivity was measured using a Wallac luminescence counter. The IC50 values were derived from eight concentrations of test inhibitors.

Another assay has as its system HCT116 (colon). As to the kind of experiment: In vitro cytotoxic activity MTT assay, HCT116. In kind it is cell-based. The following applies: Homo sapiens, HCT-116; HCT116 (colon) cells, exposed for 96 hours; read-out: IC50, concentration of compound eliciting a 50% inhibition of cell proliferation. How it is done:
as §1

The next assay has as its system HL60 (leukemia). As to the kind of experiment: In vitro cytotoxic activity MTT assay, HL60. The note with it: Homo sapiens, HL-60; HL60 (leukemia) cells, exposed for 96 hours; read-out: IC50, concentration of compound eliciting a 50% inhibition of cell proliferation. Type of assay: cell-based. How it is done: as §1
A further assay deals with H1299 (lung). As to the kind of experiment: In vitro cytotoxic activity MTT assay, H1299. Type of assay: cell-based. The note with it: Homo sapiens, NCI-H1299; H1299 (lung) cells, exposed for 96 hours; read-out: IC50, concentration of compound eliciting a 50% inhibition of cell proliferation. How it is done: as §1
Another assay deals with MIAPaCa-2 (pancreas). As to the kind of experiment: In vitro cytotoxic activity MTT assay, MIAPaCa-2. Type of assay: cell-based. The note with it: Homo sapiens, MIA PaCa-2; MIAPaCa-2 (pancreas) cells, exposed for 96 hours; read-out: IC50, concentration of compound eliciting a 50% inhibition of cell proliferation. How it is done:
as §1

Another assay relates to MCF7 (breast). As to the kind of experiment: In vitro cytotoxic activity MTT assay, MCF7. In kind it is cell-based. The following applies: Homo sapiens; MCF7 (breast) cells, exposed for 96 hours; read-out: IC50, concentration of compound eliciting a 50% inhibition of cell proliferation. How it is done:
as §1

In the next assay the test system is PC3 (prostate). As to the kind of experiment: In vitro cytotoxic activity MTT assay, PC3. The following applies: Homo sapiens, Prostate cell; PC3 (prostate) cells, exposed for 96 hours; read-out: IC50, concentration of compound eliciting a 50% inhibition of cell proliferation. In kind it is cell-based. How it is done:
as §1

pIC50: −log10 of the molar value.

T1 sequence (P68400 whole entry): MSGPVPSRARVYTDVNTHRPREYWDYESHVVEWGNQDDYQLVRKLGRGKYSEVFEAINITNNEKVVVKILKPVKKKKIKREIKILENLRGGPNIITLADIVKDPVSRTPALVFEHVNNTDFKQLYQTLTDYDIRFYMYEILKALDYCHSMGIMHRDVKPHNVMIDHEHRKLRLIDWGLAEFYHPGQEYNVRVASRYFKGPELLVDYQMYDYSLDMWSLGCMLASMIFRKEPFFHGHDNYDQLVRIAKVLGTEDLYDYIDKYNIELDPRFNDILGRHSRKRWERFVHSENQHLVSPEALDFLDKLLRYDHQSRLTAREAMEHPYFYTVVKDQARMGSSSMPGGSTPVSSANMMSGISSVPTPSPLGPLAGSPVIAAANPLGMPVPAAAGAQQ
T1 sequence (P67870 whole entry partner): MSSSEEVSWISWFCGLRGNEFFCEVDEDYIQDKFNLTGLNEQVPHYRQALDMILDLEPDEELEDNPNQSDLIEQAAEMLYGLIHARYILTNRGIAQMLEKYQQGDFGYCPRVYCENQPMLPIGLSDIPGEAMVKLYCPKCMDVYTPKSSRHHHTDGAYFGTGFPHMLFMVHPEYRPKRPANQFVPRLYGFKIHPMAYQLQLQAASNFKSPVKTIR

`O=C(O)c1ccc2[nH]c3ncnc(Nc4cccc(Cl)c4)c3c2c1` [Example 1, 4-((3-chlorophenyl)amino)-9H-pyrimido[4,5-b]indole-6-carboxylic acid]: the pIC50 with MDA-MB-231 (breast) was 5.54; with A375 (melanoma), 5.48; at recombinant human CK2 it was 7.17; in the assay with HCT116 (colon), 5.74; in the assay on HL60 (leukemia), 5.52; with H1299 (lung), 5.35. In addition, the results for the pIC50 with MIAPaCa-2 (pancreas), with MCF7 (breast) and in the assay on PC3 (prostate) were 6.05, 5.34 and 5.85, respectively.

Values taken from patent publication US11964981B1, “Substituted pyrimido[4,5-b]indoles as CK2 inhibitors” (KING FAISAL UNIVERSITY, priority 2023, dated 2024).
